Reference: ChEMBL document CHEMBL5465560, “Selectivity Literature for EUbOPEN Chemogenomic Library” (2024)

How the values were obtained:
[1] = biological target: T1, Mitogen-activated protein kinase kinase kinase 2 (Homo sapiens) (UniProt Q9Y2U5); assay: Selectivity interaction (KinomeScan (DiscoverX)) EUB0000666a MAP3K2; settings: at 10 µM
T1 sequence (whole entry): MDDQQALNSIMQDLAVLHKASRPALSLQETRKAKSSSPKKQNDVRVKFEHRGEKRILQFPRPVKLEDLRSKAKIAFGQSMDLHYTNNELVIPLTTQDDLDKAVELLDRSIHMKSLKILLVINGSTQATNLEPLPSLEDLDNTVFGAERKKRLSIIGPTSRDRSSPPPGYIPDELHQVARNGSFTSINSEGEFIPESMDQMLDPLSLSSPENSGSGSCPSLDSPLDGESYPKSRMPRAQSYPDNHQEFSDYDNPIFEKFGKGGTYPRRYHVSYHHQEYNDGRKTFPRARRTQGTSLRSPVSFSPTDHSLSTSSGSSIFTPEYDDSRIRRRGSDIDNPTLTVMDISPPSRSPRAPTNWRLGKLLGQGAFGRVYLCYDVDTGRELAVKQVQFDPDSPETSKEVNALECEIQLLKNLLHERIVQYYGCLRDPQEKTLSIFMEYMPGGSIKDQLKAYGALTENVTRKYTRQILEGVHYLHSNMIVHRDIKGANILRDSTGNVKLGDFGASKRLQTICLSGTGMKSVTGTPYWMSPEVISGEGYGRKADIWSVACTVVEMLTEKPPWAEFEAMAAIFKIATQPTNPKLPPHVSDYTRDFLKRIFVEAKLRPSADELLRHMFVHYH

[2] = biological target: Myosin light chain kinase 2, skeletal/cardiac muscle (Homo sapiens) (UniProt Q9H1R3); assay: Selectivity interaction (SelectScreen profiling (Invitrogen)) EUB0000607a MYLK2; settings: at 2 µM
Myosin light chain kinase 2, skeletal/cardiac muscle (Homo sapiens), sequence (Q9H1R3 whole entry): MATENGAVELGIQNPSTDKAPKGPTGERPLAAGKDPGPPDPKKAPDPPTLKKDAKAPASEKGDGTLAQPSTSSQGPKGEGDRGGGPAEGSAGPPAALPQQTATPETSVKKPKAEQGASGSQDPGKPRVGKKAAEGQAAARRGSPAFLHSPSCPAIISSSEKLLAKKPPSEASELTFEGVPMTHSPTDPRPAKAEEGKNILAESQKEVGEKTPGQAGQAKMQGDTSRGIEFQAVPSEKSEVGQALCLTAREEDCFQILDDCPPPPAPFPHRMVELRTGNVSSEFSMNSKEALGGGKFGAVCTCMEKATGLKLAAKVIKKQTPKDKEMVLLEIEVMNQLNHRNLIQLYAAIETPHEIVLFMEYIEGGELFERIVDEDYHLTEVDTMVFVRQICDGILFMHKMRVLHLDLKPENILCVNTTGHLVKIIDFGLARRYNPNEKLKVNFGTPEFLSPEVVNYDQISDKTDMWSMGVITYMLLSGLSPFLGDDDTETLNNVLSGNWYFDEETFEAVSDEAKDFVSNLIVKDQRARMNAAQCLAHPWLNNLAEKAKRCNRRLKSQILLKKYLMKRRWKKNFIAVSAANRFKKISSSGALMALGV

[3] = biological target: T2, Tyrosine-protein kinase ZAP-70 (Homo sapiens) (UniProt P43403); assay: Selectivity interaction (Millipore kinase profiler) EUB0000124b ZAP70; settings: at 10 µM
T2 sequence (whole entry): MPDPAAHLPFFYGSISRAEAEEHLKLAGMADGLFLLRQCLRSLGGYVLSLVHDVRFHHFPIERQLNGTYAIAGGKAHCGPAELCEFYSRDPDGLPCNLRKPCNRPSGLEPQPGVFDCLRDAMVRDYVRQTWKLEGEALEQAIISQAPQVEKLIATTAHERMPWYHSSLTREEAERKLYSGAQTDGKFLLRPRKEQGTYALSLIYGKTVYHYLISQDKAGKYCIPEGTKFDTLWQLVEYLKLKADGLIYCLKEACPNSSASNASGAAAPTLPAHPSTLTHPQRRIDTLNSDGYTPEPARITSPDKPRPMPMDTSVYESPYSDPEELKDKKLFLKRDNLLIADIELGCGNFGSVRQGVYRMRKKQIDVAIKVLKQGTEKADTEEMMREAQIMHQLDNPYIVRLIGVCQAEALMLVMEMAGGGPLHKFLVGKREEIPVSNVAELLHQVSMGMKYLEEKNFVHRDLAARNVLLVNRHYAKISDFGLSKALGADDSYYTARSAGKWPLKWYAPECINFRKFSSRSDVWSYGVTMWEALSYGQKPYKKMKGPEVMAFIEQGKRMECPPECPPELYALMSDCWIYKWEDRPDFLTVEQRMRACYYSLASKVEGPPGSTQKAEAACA

[4] = biological target: T3, Serine/threonine-protein kinase Nek3 (Homo sapiens) (UniProt P51956); assay: Selectivity interaction (Ambit KINOMEscan and KiNATiv profiling in Jurkat cells) EUB0000090b NEK3; type: cell-based; settings: at 1 µM
T3 sequence (whole entry): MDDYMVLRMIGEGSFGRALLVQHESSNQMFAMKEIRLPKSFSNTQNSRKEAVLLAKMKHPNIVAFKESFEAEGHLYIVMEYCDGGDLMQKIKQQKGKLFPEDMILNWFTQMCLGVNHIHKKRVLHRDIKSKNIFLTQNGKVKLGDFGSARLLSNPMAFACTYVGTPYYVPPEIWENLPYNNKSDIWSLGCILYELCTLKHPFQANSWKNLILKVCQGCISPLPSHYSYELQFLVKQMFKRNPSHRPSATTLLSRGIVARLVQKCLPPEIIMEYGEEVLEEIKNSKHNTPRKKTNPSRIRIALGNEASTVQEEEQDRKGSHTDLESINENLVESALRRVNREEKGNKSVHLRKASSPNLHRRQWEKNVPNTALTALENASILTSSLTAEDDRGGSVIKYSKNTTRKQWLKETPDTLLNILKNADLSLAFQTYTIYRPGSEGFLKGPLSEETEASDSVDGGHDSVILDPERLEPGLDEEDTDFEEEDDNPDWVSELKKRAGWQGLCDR

[5] = biological target: Wee1-like protein kinase (Homo sapiens) (UniProt P30291); assay: Selectivity interaction (Ambit KINOMEscan and KiNATiv profiling in Jurkat cells) EUB0000090b WEE1; type: cell-based; settings: at 1 µM
Wee1-like protein kinase (Homo sapiens), sequence (P30291 whole entry, looked up): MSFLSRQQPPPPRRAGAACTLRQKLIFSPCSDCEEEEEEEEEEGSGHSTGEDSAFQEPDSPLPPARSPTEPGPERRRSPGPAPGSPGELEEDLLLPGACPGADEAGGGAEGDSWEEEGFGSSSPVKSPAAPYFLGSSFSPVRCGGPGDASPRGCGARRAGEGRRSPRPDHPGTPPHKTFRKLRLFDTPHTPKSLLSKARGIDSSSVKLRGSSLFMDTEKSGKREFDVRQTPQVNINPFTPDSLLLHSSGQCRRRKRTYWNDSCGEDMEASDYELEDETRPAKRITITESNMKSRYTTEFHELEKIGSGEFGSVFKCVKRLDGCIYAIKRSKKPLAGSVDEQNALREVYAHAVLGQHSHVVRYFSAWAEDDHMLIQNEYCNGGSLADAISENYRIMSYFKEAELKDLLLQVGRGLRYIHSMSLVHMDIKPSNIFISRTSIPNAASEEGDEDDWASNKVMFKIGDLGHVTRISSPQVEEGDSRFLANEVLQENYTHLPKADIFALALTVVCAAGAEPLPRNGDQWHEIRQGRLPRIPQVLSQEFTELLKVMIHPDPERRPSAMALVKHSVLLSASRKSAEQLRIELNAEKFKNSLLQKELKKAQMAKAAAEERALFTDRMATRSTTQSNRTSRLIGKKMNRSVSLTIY

[6] = biological target: Receptor tyrosine-protein kinase erbB-2 (Homo sapiens, UniProt P04626); assay: Selectivity interaction (KinomeScan (DiscoverX)) EUB0000655a ERBB2; settings: at 10 µM
Receptor tyrosine-protein kinase erbB-2, sequence (P04626 whole entry): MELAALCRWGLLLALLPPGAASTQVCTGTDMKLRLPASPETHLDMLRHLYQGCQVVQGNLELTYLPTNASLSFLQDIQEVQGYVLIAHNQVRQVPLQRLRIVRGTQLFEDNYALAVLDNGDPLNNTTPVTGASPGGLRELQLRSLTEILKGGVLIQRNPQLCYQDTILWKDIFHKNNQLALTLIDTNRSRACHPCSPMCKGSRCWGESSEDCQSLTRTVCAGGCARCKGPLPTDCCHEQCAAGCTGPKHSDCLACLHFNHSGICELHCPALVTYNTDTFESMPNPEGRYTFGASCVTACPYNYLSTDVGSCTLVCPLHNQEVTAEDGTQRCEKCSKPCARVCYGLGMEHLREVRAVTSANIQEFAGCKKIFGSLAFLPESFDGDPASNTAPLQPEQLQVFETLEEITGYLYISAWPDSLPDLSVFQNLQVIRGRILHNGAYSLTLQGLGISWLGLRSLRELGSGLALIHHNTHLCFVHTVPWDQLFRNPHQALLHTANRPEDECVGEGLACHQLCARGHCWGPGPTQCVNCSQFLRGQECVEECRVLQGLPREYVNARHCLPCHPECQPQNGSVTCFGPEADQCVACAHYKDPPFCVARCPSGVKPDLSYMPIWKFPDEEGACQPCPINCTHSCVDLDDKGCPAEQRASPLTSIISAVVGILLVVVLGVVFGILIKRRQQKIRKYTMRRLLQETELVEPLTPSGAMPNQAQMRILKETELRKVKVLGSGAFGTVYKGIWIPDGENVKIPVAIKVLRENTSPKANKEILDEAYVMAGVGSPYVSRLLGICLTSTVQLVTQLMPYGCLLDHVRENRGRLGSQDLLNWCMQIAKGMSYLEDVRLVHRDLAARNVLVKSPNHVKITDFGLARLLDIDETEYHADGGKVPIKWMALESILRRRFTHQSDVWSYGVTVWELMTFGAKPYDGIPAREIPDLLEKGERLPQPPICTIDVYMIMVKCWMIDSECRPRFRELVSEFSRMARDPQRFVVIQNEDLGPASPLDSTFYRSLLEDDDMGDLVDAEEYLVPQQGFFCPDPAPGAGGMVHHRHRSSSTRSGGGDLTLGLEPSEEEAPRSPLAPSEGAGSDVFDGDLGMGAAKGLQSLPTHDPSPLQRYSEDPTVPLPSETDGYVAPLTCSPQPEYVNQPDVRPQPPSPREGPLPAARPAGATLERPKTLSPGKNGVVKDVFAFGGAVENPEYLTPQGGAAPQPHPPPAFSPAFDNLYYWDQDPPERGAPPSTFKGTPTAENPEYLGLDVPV

[7] = biological target: Protein kinase C theta type (Homo sapiens, UniProt Q04759); assay: Selectivity interaction (KinomeScan (DiscoverX)) EUB0001079a PRKCQ; settings: at 1 µM
Protein kinase C theta type, sequence (Q04759 whole entry, looked up): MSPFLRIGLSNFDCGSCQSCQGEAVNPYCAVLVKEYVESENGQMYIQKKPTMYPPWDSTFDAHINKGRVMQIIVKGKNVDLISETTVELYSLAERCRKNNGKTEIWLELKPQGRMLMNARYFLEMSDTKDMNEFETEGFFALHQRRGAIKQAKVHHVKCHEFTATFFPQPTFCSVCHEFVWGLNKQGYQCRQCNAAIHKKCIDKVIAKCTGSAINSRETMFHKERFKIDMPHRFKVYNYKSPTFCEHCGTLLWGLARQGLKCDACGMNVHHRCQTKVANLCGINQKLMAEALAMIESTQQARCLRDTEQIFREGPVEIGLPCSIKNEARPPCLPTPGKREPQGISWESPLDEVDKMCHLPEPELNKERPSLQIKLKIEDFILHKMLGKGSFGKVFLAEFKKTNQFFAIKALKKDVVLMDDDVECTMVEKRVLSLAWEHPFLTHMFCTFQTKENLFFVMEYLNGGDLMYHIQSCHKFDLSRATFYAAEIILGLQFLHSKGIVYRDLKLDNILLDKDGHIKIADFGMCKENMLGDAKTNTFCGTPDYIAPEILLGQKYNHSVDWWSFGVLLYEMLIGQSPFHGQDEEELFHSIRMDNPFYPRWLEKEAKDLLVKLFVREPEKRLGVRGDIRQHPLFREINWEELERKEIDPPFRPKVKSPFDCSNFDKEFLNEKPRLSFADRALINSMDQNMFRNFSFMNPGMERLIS

[8] = biological target: T3, Serine/threonine-protein kinase Nek3 (Homo sapiens); assay: Selectivity interaction (KinomeScan (DiscoverX)) EUB0000618a NEK3; settings: at 10 µM
[9] = biological target: Ribosomal protein S6 kinase alpha-4 (Homo sapiens) (UniProt O75676); assay: Selectivity interaction (KinomeScan (DiscoverX)) EUB0001619a RPS6KA4; settings: at 1 µM
Ribosomal protein S6 kinase alpha-4 (Homo sapiens), sequence (O75676 whole entry, looked up): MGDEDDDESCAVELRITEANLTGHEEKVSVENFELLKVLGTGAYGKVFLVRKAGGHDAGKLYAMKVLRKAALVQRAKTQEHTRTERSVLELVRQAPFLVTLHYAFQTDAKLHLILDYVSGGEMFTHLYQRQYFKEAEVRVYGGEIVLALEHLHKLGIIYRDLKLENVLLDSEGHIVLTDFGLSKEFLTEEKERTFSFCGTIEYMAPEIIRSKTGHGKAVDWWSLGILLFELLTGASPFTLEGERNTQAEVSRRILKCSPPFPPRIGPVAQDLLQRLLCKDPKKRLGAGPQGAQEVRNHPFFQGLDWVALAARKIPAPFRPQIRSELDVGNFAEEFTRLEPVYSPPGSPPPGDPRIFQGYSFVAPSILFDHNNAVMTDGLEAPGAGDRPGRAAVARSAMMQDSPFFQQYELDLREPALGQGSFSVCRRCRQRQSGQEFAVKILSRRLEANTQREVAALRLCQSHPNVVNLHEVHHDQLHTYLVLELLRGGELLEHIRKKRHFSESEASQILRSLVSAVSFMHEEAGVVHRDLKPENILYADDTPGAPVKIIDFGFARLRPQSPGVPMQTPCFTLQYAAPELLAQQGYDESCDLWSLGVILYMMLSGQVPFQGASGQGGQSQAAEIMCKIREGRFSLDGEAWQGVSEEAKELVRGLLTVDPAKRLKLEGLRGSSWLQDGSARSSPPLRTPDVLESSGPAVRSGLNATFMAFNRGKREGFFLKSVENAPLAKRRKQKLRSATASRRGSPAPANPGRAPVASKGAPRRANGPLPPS

`O=C(NOC[C@H](O)CO)c1ccc(F)c(F)c1Nc1ccc(I)cc1F` gave a % of control [1] of 100%.
Work on `CNC(=O)Nc1ccc(-c2nc(N3CC4CCC(C3)O4)c3cnn(C4CCC5(CC4)OCCO5)c3n2)cc1` yielded a % of inhibition [2] of 8%.
`CC(=O)Nc1cccc(-n2c(=O)n(C3CC3)c(=O)c3c(Nc4ccc(I)cc4F)n(C)c(=O)c(C)c32)c1` showed a % of control [3] of 111%.
`CN(C)C/C=C/C(=O)Nc1ccc(C(=O)N2CCCC(Nc3ncc(Cl)c(-c4c[nH]c5ccccc45)n3)C2)cc1` (centres undefined) showed a % of control [4] of 88% and a % of control [5] of 77%.
Compound `CN(C)CCOc1ccc(-c2nc(-c3ccncc3)c(-c3ccc4c(c3)CC/C4=N\O)[nH]2)cc1` has a % of control [6] of 40%.
`Nc1cnc(N2CCc3cc(S(=O)(=O)Nc4c(F)cc(Cl)cc4F)cc(N4CCCC4=O)c32)nc1` [TP-020n] gave a % of control [7] of 89%.
Compound `O[C@H]1CC[C@H](Nc2ncc3nc(Nc4c(F)cc(F)cc4F)n([C@H]4CCOC4)c3n2)CC1` has a % of control [8] of 100%.
`N#Cc1cccc(-c2c[nH]c3ncnc(N4CCOCC4)c23)c1` was tested, and the % of control [9] was 71%.
